From patent publication US11518765B2, “Substituted pyrimidine derivatives useful in the treatment of autoimmune diseases” (THE PROVOST, FELLOWS, FOUNDATION SCHOLARS, AND THE OTHER …, priority 2015, dated 2022)

How the values were obtained:
Format in all cases: in vivo, mice (C57BL/6)
[1] = body weight of EAE diseased mice; details: treated EAE animals, FIG. 2
Description: (§1) To assess the potential of these compounds in vivo, a chronic monophasic EAE disease in mice was induced before treatment with the new chemical entity (NCE). EAE Disease was induced in 8-10 week old female mice (C57BL/6) by subcutaneous (s.c.) injection of 200 μl emulsion containing 150 μg […] peptide (Genscript) in Complete Freund's Adjuvant (CFA; containing 5 mg/ml heat-inactivated Mycobacterium tuberculosis). On the same day, mice were administered 500 ng Pertussis Toxin (Kaketsuken, Japan) intraperitoneally (i.p.) and again two days later. Disease severity was recorded every 24 hours: 0-Normal; 1-flaccid tail; 2-imparied/wobbly gait; 3-complete hind limb weakness; 4-hind limb and forelimb paralysis; 5-moribund state/dead. Protocol is based on the Nature Protocols for Active induction of experimental allergic encephalomyelitis, which includes the scoring methodology: • Stromnes I M, Goverman J M (2006) Active induction of experimental allergic encephalomyelitis. Nat Protoc. 1(4):1810-9.
(§2) This contrasts with the sustained drop in body weight of non-treated EAE diseased animals to a level 86.4% that of controls at 21 dpi (17.8 grams versus 20.6 grams). Motor coordination and hind-limb strength were also evaluated by the ability of mice to cross a horizontal bar (FIG. 3). Non-diseased animals crossed the bar with an average time of 4.3±0.57 seconds.

[2] = test system: chronic monophasic EAE disease in mice; assay: chronic monophasic EAE disease in mice, EAE score (disease severity); details: FIG. 1
Description: as §1
The EAE score relates to an assessment of disease progression with respect to issues like tail paralysis and limb paralysis, a higher score is a worse condition. A score of 1 indicates decreased tail tone, a score of 2 indicates hind leg weakness (paraparesis), a score of 3 indicates hind limb paralysis and/or incontinence. Note that the untreated animals have a continuous and progressive worsening of disease.

[3] = test system: chronic monophasic EAE disease in mice; assay: motor coordination and hind-limb strength: ability of EAE mice to cross a horizontal bar; details: EAE diseased mice, within 4 treatments; FIG. 3
Description: as §1, §2

Structure (SMILES): Cl.Nc1nc2[nH]cc(CNCCCc3ccccc3)c2c(=O)[nH]1 [Compound I, N-((2-amino-4-oxo-4,7-dihydro-3H-pyrrolo[2,3-d]pyrimidin-5-yl)methyl)-3-phenylpropan-1-aminium chloride]
- body weight ([1]; 21 dpi, controls 20.6 grams): 19.9 grams
- body weight level relative to controls ([1]; 21 days post inoculation (dpi)): 96.6%
- EAE scoring after treatment ([2]; 30 mg/kg, i.p., after 4 daily treatments): disease free
- time to reversal of symptoms (EAE score) ([2]; highest dosage given, 30 mg/kg, i.p.): ≤ 24 h
- disease progression (EAE score) ([2]; lower doses, animals slower to respond): halted and reversed
- performance crossing a horizontal bar [3]: fully restored the performance of EAE diseased mice to control levels
